Data on three compounds can be found in patent US11952369B2 (Kadmon Corporation, LLC, priority 2022, dated 2024).

Several values for one entry are separate records, joined by “and”; a condition that tells them apart may be missing. Equal entries are not always repeated. Structures can show the parent of a compound that is named as a salt. Marks after values point to notes of the source that are not given here. Where only a bound is given, the exact number is not on record here.

One series is described as follows: Solubility. In kind it is physicochemical. The following applies: water.
Series [1] in a line: Phase 1 study part 2: mass balance recovery of total radioactivity in excreta. In kind it is in vivo, human. To be noted: oral 200-mg [14C]-belumosudil capsule. The protocol: (§1) For the mass balance and metabolic profiling study (part 2), following at least a 7-day washout from part 1, subjects received a single oral dose of a 200 mg [^14C]-belumosudil capsule containing NMT 9.8 MBq [^14C]. This level of radioactivity was selected based on human dosimetry calculations conducted by Public Health England that determined a radioactive oral dose of NMT 9.8 MBq would be necessary to permit adequate metabolite profiling of key samples. Taking the part 1 microtracer dose into account, the total committed effective dose subjects received in the study was 3 mSv, which falls within the International Commission on Radiological Protection Guidelines for Category IIb studies. Additionally, to remain within the limit for radioactive dose approved by the UK Administration of Radioactive Substances Advisory Committee, the target-specific activity of [^14C]-belumosudil was set to 90% of the threshold radioactive dosing limit.
Urine for total radioactivity and metabolite profiling and identification was collected before dosing (the first void of the day) and pooled from 0 to 6, 6 to 12, and 12 to 24 hours after dosing followed by daily (24-hour) collections until day 8/discharge. Urine samples were pooled per interval and stored at 2 to 8° C. pending analysis. Feces were collected from admission until before dosing and then daily (24-hour) collections until discharge. Fecal samples were pooled per time interval and stored at −20° C. pending analysis.
(§2) Total radioactivity whole-blood, plasma, and urine samples were prepared for LSC by mixing with scintillation fluid. In addition, aliquots of whole blood were solubilized with AquiGest tissue solubilization fluid and plasma samples were mixed with 10 mM of phosphate-buffered saline. Urine and fecal samples were pooled per subject by time interval before analysis. In addition, fecal samples were combusted using an automatic sample oxidizer prior to LSC. Radioactivity in all samples was measured using an LSC with automatic external standard quench correction (2300TR, 2900TR, and 3100TR Tri-Carb, Scintillation Counters; PerkinElmer, Waltham, Massachusetts), with samples counted for 4 minutes. The LLOQ was considered to be twice the background value for samples of the same type (1.39 [urine], 23.9 [feces], 35.5 [whole blood], and 30.9 [plasma] ng equivalents [free base]/g or mL).

A short description of series [2]: Phase 1 study part 1: absolute bioavailability, oral 200-mg tablet plus [14C]-belumosudil IV microtracer, plasma PK. In kind it is in vivo, human. To be noted: 100 μg IV; for half-life: iv. As for the experimental part: (§3) This was a single-center, nonrandomized, open-label, 2-part study in 5 healthy male subjects aged 30 to 65 years. All oral doses were administered following an overnight fast and a standard breakfast on the day of dosing.
(timed to occur at the expected maximum concentration [Cmax]). To determine absolute bioavailability, a microtracer dose was chosen as it negates the need for an IV formulation with good stability. Additionally, due to use of a very low dose, further nonclinical studies such as local tolerance and general toxicology studies were not warranted.
Blood samples for IV [^14C]-belumosudil PK analysis and total radioactivity were collected at −0.25, −0.16, −0.08, 0, 0.08, 0.16, 0.25, 0.5, 0.75, 1, 1.5, 2, 3, 4, 5, 6, 8, 10, 12, 22, 34, and 46 hours after the end of infusion (EOI). All samples were processed to plasma within 30 minutes of collection by centrifugation at 2000 g for 10 minutes at 4° C., and
Total [^14C]-belumosudil concentrations were determined by accelerator mass spectrometry (AMS). […] Selected samples were diluted with commercial plasma to ensure that concentrations would fall within the acceptable range for AMS analysis. The samples were converted to graphite through combustion to CO2 followed by reduction to graphite. The graphite targets were then analyzed by AMS (LLOQ of 0.00489, 0.00557, 0.00485, 0.00402, and 0.00372 ng equiv/mL for individual subjects). All ^14C data was background-corrected based on predose [^14C]-belumosudil concentrations.
Eluate fractions corresponding to [^14C]-belumosudil were collected before AMS analysis (LLOQ of 1.55 pg equiv/mL).
(§4) PK parameter estimates were used to calculate absolute bioavailability and metabolite-to-parent ratio.

Series [3] is described as follows: Phase 1 study part 2: plasma and whole-blood PK after oral 200 mg [14C]-belumosudil capsule. The format is in vivo, human. The following applies: for F, AUCinf (bioavailability) / F, Cmax (bioavailability): oral [14C]-belumosudil 200-mg capsule vs IV [14C]-belumosudil dose of part 1; for half-life: 200 mg. The protocol:
as §3, §1
Whole-blood samples for total radioactivity and plasma samples for metabolite pro-filing and identification were collected before dosing and 1, 4, 8, 12, 24, 48, 72, 96, 120, 144, and 168 hours after dosing. […] Whole-blood samples for total radioactivity were collected into tripotassium ethylene-diaminetetraacetic acid tubes and stored at 2 to 8° C. pending analysis. […] (metabolite profiling samples).
as §2, §4

The next series relates to patients with cGVHD. To be noted: cited from earlier work.
Where [4] appears, read: arithmetic mean (standard deviation), Part 1, [14C]-belumosudil.
Setting [5] is: arithmetic mean (standard deviation), Part 1, total radioactivity.
The mark [6] stands for this setting: geometric mean (geometric CV %), Part 1, [14C]-belumosudil.
[7] abbreviates: geometric mean (geometric CV %), Part 1, total radioactivity.
Setting [8] is: arithmetic mean (standard deviation), Part 2, [14C]-belumosudil 200-mg capsule.
Where [9] appears, read: arithmetic mean (standard deviation), Part 2.
The mark [10] stands for this setting: arithmetic mean (standard deviation), Part 2, total radioactivity, 200-mg capsule.
[11] abbreviates: geometric mean (geometric CV %), Part 2, [14C]-belumosudil 200-mg capsule.
The mark [12] stands for this setting: geometric mean (geometric CV %), Part 2.
Setting [13] is: geometric mean (geometric CV %), Part 2, total radioactivity, 200-mg capsule.

Take `CC(C)NC(=O)COc1cccc(-c2nc(Nc3ccc4[nH]ncc4c3)c3ccccc3n2)c1` [Belumosudil mesylate, 2-{3-[4-(1H-indazol-5-ylamino)-2-quinazolinyl]phenoxy}-N-(propan-2-yl) acetamide methanesulfonate (1:1)]: the solubility in water result in the series “Solubility” is listed as “practically insoluble in water”.

Regarding `CC(C)NC(=O)COc1cccc(-[14c]2nc(Nc3ccc4[nH]ncc4c3)c3ccccc3n2)c1` [[^14C]-Belumosudil], in series [1], the “radioactivity recovered in excreta” value turned out to be 88.5%; the “radiolabeled dose recovered in urine” value is under 5%; the “total radioactivity recovered in feces” value is 84.6% and 85%; the “total radioactivity recovered in feces within the first 24 hours after dosing” value is listed as “≈ 27.4%”. Also, the “total radioactivity recovered in urine within the first 24 hours after dosing” value in series [1] came to 3.8%. In series [2] (setting [4]), the AUCextrap is 0.63 (0.46) %, the AUCinf is 6720 (2220) ng or ng equiv × h/mL, the AUClast is recorded as 6680 (2220) ng or ng equiv × h/mL and the Clearanance is reported as 264 (64.3) mL/min. In series [2] (setting [4]), the Cmax was 4530 (830) ng or ng equiv/mL; the Volume is on record as 138 (59.8) L; the “Volume, ss” value was 54.1 (10.7) L. For the same compound, in series [2] (setting [5]), the AUCextrap is 8.48 (2.84) %, the Clearanance is 122 (29.0) mL/min and the Volume is listed as 194 (53.2) L. Moreover, in series [2] (setting [6]), the AUCextrap is 0.53 (66.3); %, the AUCinf is listed as 6480 (29.3); ng or ng equiv × h/mL, the AUClast was 6440 (29.5); ng or ng equiv × h/mL and the Cmax is given as 4480 (18.0); ng or ng equiv/mL. In series [2] (setting [6]), the “T1/2 (terminal half-life)” value was 5.86 (35.8); h; the Volume was 130 (38.9); L; the “Volume, ss” value is 53.2 (20.6); L. For the same compound, in series [2] (setting [7]), the AUCextrap is 8.09 (35.4); %; the Clearanance is on record as 120 (23.7); mL/min; the Volume is recorded as 186 (35.4); L; the “Volume, ss” value was 98.2 (23.4) L. The Tmax (usually the time from dosing to the highest level) in series [2] (male, human, plasma, 100 ug, median (min-max), Part 1 (n = 5), [14C]-belumosudil) was determined as 0.25 h. In addition, the half-life in series [2] (male, human, plasma, 100 ug, arithmetic mean (standard deviation), Part 1, [14C]-belumosudil, read-out: T1/2 (converted)) was 6.15 h. Besides, the half-life in series [2] (male, human, plasma, 100 ug, geometric mean (geometric CV %), Part 1, [14C]-belumosudil, read-out: T1/2 (terminal half-life) (converted)) was 5.9 h. Moreover, in series [3] (setting [8]), the AUCextrap was 3.08 (2.16) %, the AUCinf is listed as 8490 (2680) ng or ng equiv × h/mL and the “Clearanance (apparent clearance)” value is listed as 435 (173) mL/min. In addition, in series [3] (setting [9]), the “F, AUCinf (bioavailability)” value is on record as 63.8 (15.7)^b % and the “F, Cmax (bioavailability)” value is listed as 63.8 (15.7)^b %. For the same compound, in series [3] (setting [10]), the AUCextrap is on record as 10.1 (2.79) % and the Clearanance is listed as 126 (59.7) mL/min. In series [3] (setting [11]), the AUCextrap was 2.46 (92.9); %, the AUCinf is listed as 8100 (37.0); ng or ng equiv × h/mL, the AUClast is on record as 7850 (39.3); ng or ng equiv × h/mL and the “Clearanance (apparent clearance)” value is reported as 412 (37.0); mL/min. Also, the Cmax in series [3] (setting [11]) is 1680 (32.1); ng or ng equiv/mL. Besides, in series [3] (setting [12]), the “F, AUCinf (bioavailability)” value is listed as 62.2 (26.6)^b; % and the “F, Cmax (bioavailability)” value is 62.2 (26.6)^b; %. In series [3] (setting [13]), the AUCextrap is on record as 9.76 (31.7); % and the Clearanance is recorded as 118 (46.1); mL/min. Moreover, the half-life in series [3] (male, human, plasma, oral, arithmetic mean (standard deviation), Part 2, [14C]-belumosudil 200-mg capsule) is 5.39 h. For the same compound, the half-life in series [3] (male, human, plasma, oral, geometric mean (geometric CV %), Part 2, [14C]-belumosudil 200-mg capsule) was 5.11 h. Besides, the time to peak (Tmax) in series [3] (male, human, plasma, oral, median (min-max), Part 2 (n = 5), [14C]-belumosudil 200-mg capsule) was 2 h.

Turning to `C=CC(=O)N1CCC[C@@H](n2nc(-c3ccc(Oc4ccccc4)cc3)c3c(N)ncnc32)C1` [ibrutinib], in the series with patients with cGVHD, the “discontinuation rate because of treatment-emergent adverse events (TEAEs)” value was 43%.
